The values below come from US20080113900A1, “Pharmaceutical compositions and therapeutic applications for the use of a synthetic vitamin B12 derivative, glutathionylcobalamin” (priority 2006, published 2008).

One data set deals with Hsp32. Nature of the data set: Hsp32 gene expression (RT-PCR, densitometry). It is filed as cell-based, human. Particulars: SK-HEP-1; Sn (IX) protoporphyrin 25 μM; Quercitin 15 μM.
The subject of another data set is SK-HEP-1 cells. As to the kind of experiment: Effect of high concentrations of NACCbl and GSCbl on SK-HEP-1 cells (MTS assay, 24 hours). As to conditions: for Cell viability by MTS assay (FIG. 13): SK-HEP-1, 3 replicates. In kind it is cell-based, human. In general terms: Tetrazolium assays rely on reduction of a dye to a coloured formazan, in cell work by metabolically active cells.

Structures are written as SMILES. Values joined by “and” are separate entries in the source; they are usually repeats but may differ in a detail not shown here. Equal values may be shown once.

Method for Hsp32: Cells were plated into 6-, 12-, or 24-well cell culture clusters, at 2×10^3, 2×10^5, or 1×10^5 cells per well and incubated until 90% confluent. Treatments were applied as above.
Following incubation, cells were subjected to mRNA extraction followed by cDNA synthesis for each sample under test. Polymerase chain reaction cDNA templates were prepared for simplex PCR protocol. PCR products were then visualized using a UV Transilluminator and images captured using a Kodak ID gel imaging system. Densitometry and statistical analysis was then performed on each gene expression band image using PSP® v 10.0 running under Windows XP®.
mRNA extraction was performed using the Quickprep micro mRNA Purification Kit. Following incubation of cells post-treatment, the media was removed from the cells, adherent cells were re-suspended in 0.4 ml extraction buffer and 0.8 ml elution buffer at 65° C. was added.
A reaction mixture was prepared in individual microcentrifuge tubes containing 2 cDNA synthesis beads, 32 μl of the mRNA solution and 1 μl of pd(N)6. This mixture was incubated at 37° C. in a water bath for 60 minutes. After incubation, 27 μl of RNase-free DEPC treated water was added to each tube to make a total volume 60 μl. cDNA samples were prepared in duplicate. Sample 1 was used immediately in RT-PCR protocol. Sample 2 was prepared for qPCR protocol by the addition of 150 μl of 95% ice-cold ethanol and stored at −20° C.
Microcentrifuge tubes from puReTaq™Ready-To-Go™ PCR Beads containing one PCR bead were labeled for each sample required. Added to the PCR bead were 17 μl of RNase-free DEPC treated water, 1 μl sense primer, 1 μl anti-sense primer and 5 μl of the cDNA solution. RT-PCR conditions were as follows: Hsp70 and β-actin, pre-treatment step, 94° C. for 1 minute, followed by denaturing at 92° C. for 1 minute, annealing at 60° C. for 1 minute and extension at 72° C. for 1 minute. Total cycles, 30, post-treatment was then carried out at 72° C. for 10 minutes. For Hsp32, pre-treatment step, 95° C. for 2 minutes, followed by denaturing at 94° C. for 30 seconds, annealing at 58° C. for 1 minute and extension at 72° C. for 1 minute. Total cycles 45, post treatment was then carried out at 72° C. for 10 minutes. Following RT-PCR, samples were stored at −20° C.
Gels were visualised on a UV Transilluminator. Photographs were stored using a Kodak Digital camera system fitted with a UV filter set connected to a PC. Images were then transferred to the Kodak ID gel imaging system. Densitometry was performed on each gene expression band using PSP™ v10 running under Windows XP®.
Experiments were conducted using Hsp32 and Hsp 70 gene expression as the basis for study. […] The densitometric data are presented as means ±SEM of n=3 separate experiments. *p<0.05 or **p<0.01, treatment vs. control.

Regarding `CC(=O)NC(C[S-])C(=O)O.CC1=C2N=C(C=C3N=C(C(C)=C4[N-]C(C(CC(N)=O)C4(C)CCC(=O)NCC(C)OP(=O)([O-])OC4C(CO)OC(n5cnc6cc(C)c(C)cc65)C4O)C4(C)N=C1C(CCC(N)=O)C4(C)CC(N)=O)C(CCC(N)=O)C3(C)C)C(CCC(N)=O)C2(C)CC(N)=O.[Co+3]` [NACCbl, N-acetyl-L-cysteinylcobalamin], the Hsp32 gene expression result in the data set with Hsp32 is given as “induced”. The Survival entry in the data set with SK-HEP-1 cells (SK-HEP-1, 10 mM, 24 hours) is reported as “over 60%”. The “Cell viability by MTS assay (FIG. 13)” value in the data set with SK-HEP-1 cells (compound conc. 0.61, 24 hours) was 2.572 and 2.498 and 2.473; with SK-HEP-1 cells (compound conc. 1.22, 24 hours), 2.546 and 2.524 and 2.538; in the data set with SK-HEP-1 cells (compound conc. 2.441, 24 hours) it was 2.592 and 2.536 and 2.499; with SK-HEP-1 cells (compound conc. 4.882, 24 hours), 2.532 and 2.463 and 2.457; in the data set on SK-HEP-1 cells (compound conc. 9.765, 24 hours), 2.505 and 2.474 and 2.514; in the data set with SK-HEP-1 cells (compound conc. 19.531, 24 hours), 2.485 and 2.466 and 2.502. Also, the “Cell viability by MTS assay (FIG. 13)” value in the data set on SK-HEP-1 cells (compound conc. 39.062, 24 hours) was 2.503 and 2.474 and 2.453; in the data set with SK-HEP-1 cells (compound conc. 78.125, 24 hours) it was 2.521 and 2.488 and 2.475; in the data set on SK-HEP-1 cells (compound conc. 156.25, 24 hours), 2.484 and 2.42 and 2.492; with SK-HEP-1 cells (compound conc. 312.5, 24 hours) it was 2.409 and 2.301 and 2.437; in the data set with SK-HEP-1 cells (compound conc. 625, 24 hours), 2.358 and 2.242 and 2.347; in the data set with SK-HEP-1 cells (compound conc. 1250, 24 hours), 2.2 and 2.055 and 2.3. Also, the “Cell viability by MTS assay (FIG. 13)” value in the data set on SK-HEP-1 cells (compound conc. 2500, 24 hours) is 1.989 and 1.891 and 2.085; in the data set on SK-HEP-1 cells (compound conc. 5000, 24 hours) it was 2.081 and 2.003 and 2.004; with SK-HEP-1 cells (compound conc. 10000, 24 hours) it was 1.908 and 1.82 and 1.732.
